Experimental data: patent US10457709B2, “Antimicrobial peptides, their variants and uses” (priority 2015, dated 2019)
Like-named read-outs stand apart in the source and are kept apart here. Square brackets hold non-standard residues; d marks the D form. Peptide text beside a SMILES is read from it.

How the values were obtained:
[1] = tested on: Acinetobacter johnsonii clinical strains; format: cell-based; conditions: Acinetobacter johnsonii clinical strain 1; microdilution, Muller Hinton broth-cation adjusted, 0.02% BSA, 0.2% acetic acid
Procedure, shortened: (§1)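 Broth microdilution in Mueller Hinton broth, inoculum adjusted to 5.0×10^5 cfu/ml, peptides tested at 0.125 to 128 μg/ml, 37° C for 20 to 24 hours. Yeast assays were run in potato dextrose broth. MIC was taken as the lowest concentration with no visible growth.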

[2] = tested on: Klebsiella pneumoniae clinical strains; format: cell-based; conditions: microdilution, Muller Hinton broth-cation adjusted, 0.02% BSA, 0.2% acetic acid
Procedure, shortened: as §1

[3] = tested on: all the bacteria and yeasts tested; format: cell-based
Procedure, shortened: as §1

[4] = tested on: Escherichia coli clinical strains; format: cell-based; conditions: microdilution, Muller Hinton broth-cation adjusted, 0.02% BSA, 0.2% acetic acid
Procedure, shortened: as §1

[5] = tested on: Pseudomonas aeruginosa clinical strains; format: cell-based; conditions: microdilution, Muller Hinton broth-cation adjusted, 0.02% BSA, 0.2% acetic acid
Procedure, shortened: as §1

[6] = tested on: Candida albicans clinical strains; assay: MIC, clinical yeast strains; format: cell-based; set-up: unit: μg/ml
Procedure, shortened: as §1

[7] = tested on: Staphylococcus aureus clinical strains; format: cell-based; set-up: Minimum inhibitory concentration: unit: μg/ml; conditions: microdilution, Muller Hinton broth-cation adjusted, 0.02% BSA, 0.2% acetic acid
Procedure, shortened: as §1

[8] = tested on: Streptococcus pneumoniae clinical strains; format: cell-based; set-up: Minimum inhibitory concentration: unit: μg/ml; conditions: microdilution, Muller Hinton broth-cation adjusted, 0.02% BSA, 0.2% acetic acid
Procedure, shortened: as §1

[9] = tested on: Acinetobacter baumannii clinical strains; format: cell-based; set-up: Minimum inhibitory concentration: unit: μg/ml; conditions: microdilution, Muller Hinton broth-cation adjusted, 0.02% BSA, 0.2% acetic acid
Procedure, shortened: as §1

[10] = tested on: Enterobacter cloacae clinical strains; format: cell-based; set-up: Minimum inhibitory concentration: unit: μg/ml; conditions: microdilution, Muller Hinton broth-cation adjusted, 0.02% BSA, 0.2% acetic acid
Procedure, shortened: as §1

[11] = tested on: Serratia marcescens clinical strains; format: cell-based; set-up: Minimum inhibitory concentration: unit: μg/ml; conditions: for Minimum inhibitory concentration: microdilution, Muller Hinton broth-cation adjusted, 0.02% BSA, 0.2% acetic acid
Procedure, shortened: as §1

[12] = tested on: Proteus mirabilis clinical strains; format: cell-based; set-up: Minimum inhibitory concentration: unit: μg/ml; conditions: for Minimum inhibitory concentration: microdilution, Muller Hinton broth-cation adjusted, 0.02% BSA, 0.2% acetic acid
Procedure, shortened: as §1

[13] = tested on: C. parapsilosis clinical strains; assay: MIC, clinical yeast strains; format: cell-based, Candida parapsilosis; set-up: unit: µg/ml
Procedure, shortened: as §1

[14] = tested on: C. glabrata clinical strains; assay: MIC, clinical yeast strains; format: cell-based, Candida glabrata; set-up: unit: µg/ml
Procedure, shortened: as §1

[15] = tested on: C. quillermondiae clinical strains; assay: MIC, clinical yeast strains; format: cell-based, Candida quillermondiae; set-up: unit: μg/ml; conditions: C. quillermondiae clinical yeast strain 1
Procedure, shortened: as §1

CC(C)C[C@@H](NC(=O)[C@H](N)CCCNC(=N)N)C(=O)N[C@H](CCCCN)C(=O)N[C@H](Cc1c[nH]c2ccccc12)C(=O)N[C@H](Cc1ccccc1)C(=O)N[C@H](CC(C)C)C(=O)N[C@H](CC(C)C)C(=O)N[C@H](Cc1ccccc1)C(=O)N[C@H](CCCNC(=N)N)C(=O)N[C@H](CCCCN)C(=O)N[C@H](CCCNC(=N)N)C(=O)O [Chain308D] (H-[dR][dL][dK][dW][dF][dL][dL][dF][dR][dK][dR]-OH)
1: Minimum inhibitory concentration ([4]; Escherichia coli clinical strain 1) | Minimum inhibitory concentration ([4]; Escherichia coli clinical strain 3) | Minimum inhibitory concentration ([4]; Escherichia coli clinical strain 4) | Minimum inhibitory concentration ([4]; Escherichia coli clinical strain 5) | Minimum inhibitory concentration ([7]; Staphylococcus aureus clinical strain 1) | Minimum inhibitory concentration ([7]; Staphylococcus aureus clinical strain 3)
>128: Minimum inhibitory concentration ([11]; Serratia marcescens clinical strain 4) | Minimum inhibitory concentration ([12]; Proteus mirabilis clinical strain 1) | Minimum inhibitory concentration ([12]; Proteus mirabilis clinical strain 4) | Minimum inhibitory concentration ([12]; Proteus mirabilis clinical strain 5)
64: Minimum inhibitory concentration ([11]; Serratia marcescens clinical strain 3)
4: Minimum inhibitory concentration [1] | Minimum inhibitory concentration ([2]; Klebsiella pneumoniae clinical strain 1) | Minimum inhibitory concentration ([2]; Klebsiella pneumoniae clinical strain 2) | Minimum inhibitory concentration ([2]; Klebsiella pneumoniae clinical strain 3) | Minimum inhibitory concentration ([2]; Klebsiella pneumoniae clinical strain 4) | Minimum inhibitory concentration ([2]; Klebsiella pneumoniae clinical strain 5) | Minimum inhibitory concentration ([5]; Pseudomonas aeruginosa clinical strain 3) | Minimum inhibitory concentration ([5]; Pseudomonas aeruginosa clinical strain 4) | Minimum inhibitory concentration ([5]; Pseudomonas aeruginosa clinical strain 5) | Minimum inhibitory concentration ([8]; Streptococcus pneumoniae clinical strain 2) | Minimum inhibitory concentration ([8]; Streptococcus pneumoniae clinical strain 5) | Minimum inhibitory concentration ([9]; Acinetobacter baumannii clinical strain 1) | Minimum inhibitory concentration ([9]; Acinetobacter baumannii clinical strain 2) | Minimum inhibitory concentration ([9]; Acinetobacter baumannii clinical strain 3) | Minimum inhibitory concentration ([13]; C. parapsilosis clinical yeast strain 4) | Minimum inhibitory concentration [15]
128: Minimum inhibitory concentration ([11]; Serratia marcescens clinical strain 1) | Minimum inhibitory concentration ([11]; Serratia marcescens clinical strain 2) | Minimum inhibitory concentration ([11]; Serratia marcescens clinical strain 5) | Minimum inhibitory concentration ([12]; Proteus mirabilis clinical strain 3)
0.5 to 32 µg/mL: MICs against all the bacteria and yeasts tested [3]
64 to 128 µg/mL: MICs against Serratia marcescens ([11]; clinical strains) | MICs against Proteus mirabilis ([12]; clinical strains)
32: Minimum inhibitory concentration ([12]; Proteus mirabilis clinical strain 2)
0.5: Minimum inhibitory concentration ([4]; Escherichia coli clinical strain 2)
2: Minimum inhibitory concentration ([7]; Staphylococcus aureus clinical strain 2) | Minimum inhibitory concentration ([7]; Staphylococcus aureus clinical strain 4) | Minimum inhibitory concentration ([7]; Staphylococcus aureus clinical strain 5) | Minimum inhibitory concentration ([8]; Streptococcus pneumoniae clinical strain 4) | Minimum inhibitory concentration ([9]; Acinetobacter baumannii clinical strain 4) | Minimum inhibitory concentration ([9]; Acinetobacter baumannii clinical strain 5) | Minimum inhibitory concentration ([10]; Enterobacter cloacae clinical strain 1) | Minimum inhibitory concentration ([10]; Enterobacter cloacae clinical strain 2) | Minimum inhibitory concentration ([10]; Enterobacter cloacae clinical strain 3) | Minimum inhibitory concentration ([10]; Enterobacter cloacae clinical strain 4) | Minimum inhibitory concentration ([10]; Enterobacter cloacae clinical strain 5)
8: Minimum inhibitory concentration ([5]; Pseudomonas aeruginosa clinical strain 1) | Minimum inhibitory concentration ([5]; Pseudomonas aeruginosa clinical strain 2) | Minimum inhibitory concentration ([8]; Streptococcus pneumoniae clinical strain 1) | Minimum inhibitory concentration ([8]; Streptococcus pneumoniae clinical strain 3) | Minimum inhibitory concentration ([13]; C. parapsilosis clinical yeast strain 1) | Minimum inhibitory concentration ([13]; C. parapsilosis clinical yeast strain 2) | Minimum inhibitory concentration ([13]; C. parapsilosis clinical yeast strain 3)
16: Minimum inhibitory concentration ([6]; Candida albicans clinical yeast strain 1) | Minimum inhibitory concentration ([6]; Candida albicans clinical yeast strain 2) | Minimum inhibitory concentration ([6]; Candida albicans clinical yeast strain 3) | Minimum inhibitory concentration ([6]; Candida albicans clinical yeast strain 4) | Minimum inhibitory concentration ([6]; Candida albicans clinical yeast strain 5) | Minimum inhibitory concentration ([14]; C. glabrata clinical yeast strain 1) | Minimum inhibitory concentration ([14]; C. glabrata clinical yeast strain 2) | Minimum inhibitory concentration ([14]; C. glabrata clinical yeast strain 3) | Minimum inhibitory concentration ([14]; C. glabrata clinical yeast strain 4)
